Data set [1] is described as follows: Cytotoxicity in HCVcc assay (CytoTox-1). The settings on record: human, Huh7.5 cells infected with cell culture-derived HCV (HCVcc), In vitro HCV cc assay, read-out: CC50 (concentration decreasing cell viability by 50%). The format is cell-based. The method, then:
(§1) Huh7.5 cells are grown in Dulbecco's modified essential media (DMEM), 10% fetal bovine serum (FBS), 1% penicillin-streptomycin (pen-strep), 1% Non-essential amino acids (NEAA) in a 5% CO2 incubator at 37° C. Huh7.5 cells are seeded at 1×10^4 cells per well into 96-well plates according to Southern Research Institute standard format. Test articles are serially diluted with DMEM plus 5% FBS. The diluted compound in the amount of 50 μl is mixed with equal volume of cell culture-derived HCV (HCVcc), then applied to appropriate wells in the plate. Human interferon alpha-2b (rIFNα-2b) and/or Sofosbuvir are included as a positive control. After 72 hr incubation at 37° C., the cells are lysed for measurement of luciferase activity using Renilla Luciferase Assay System (Promega) according to manufacturer's instruction. The number of cells in each well is determined by CytoTox-1 reagent (Promega). Test articles are tested at 6 serial dilutions in triplicate to derive, if applicable, EC50 and EC90 (concentration inhibiting HCVcc infectivity by 50% and 90%, respectively), CC50 (concentration decreasing cell viability by 50%) and SI (selectivity index: CC50/EC50) values (Table 1).

The test system of data set [2] is cell culture-derived HCV (HCVcc). As to the kind of experiment: microbe, parasite or virus in culture. The format is cell-based, hepatitis C virus. The protocol:
as §1

Data set [3] in a line: Cytotoxicity in HCV replicon cells (CytoTox-1). The format is cell-based. The settings on record: human, Huh7 hepatoma cells containing a subgenomic HCV replicon, In vitro HCV replicon assay, post infection, read-out: CC50 (concentration decreasing cell viability by 50%). The method, then:
(§2) Stable HCV replicons of different genotypes may be used for anti-HCV evaluation. We use the subgenomic HCV replicons of genotype 1a (H77 strain), 1b (Conl strain), and 2a (JFH-1 strain), which are Huh7 human hepatoma cell lines that contains an HCV replicon.
Briefly, the replicon cells are plated at 5,000 cells/well into 96-well plates that are dedicated for the analysis of cell numbers (cytotoxicity) or antiviral activity. On the following day, samples are diluted with assay media and added to the appropriate wells. Cells are processed 72 hours later when the cells are still sub-confluent. For the luciferase endpoint assay, HCV replicon levels are assessed as replicon-derived L uc activity. The concentration of drug that reduces cell viability is assessed by the fluorometric CytoTox-1 cell proliferation assay (Promega), (expressed as cell numbers). For the qRT-PCR/TaqMan assay, total RNA is extracted from the replicon cells using RNeasy 96 kit (Qiagen) according to the manufacturer's protocol. Real-time RTPCR/TaqMan assays are performed to measure copy numbers of the replicon RNA and cellular ribosomal RNA. […]

Another data set has as its system HCV GT1B Replicon. Put plainly: HCV replicon assay (antiviral, luciferase endpoint). The format is cell-based, hepatitis C virus.
Description: as §2
The HCV replicon antiviral evaluation assay examines the effects of compounds at six serial dilutions. Human interferon alpha-2b (rIFNα-2b) and/or Sofosbuvir are included in each run as a positive control compound.
Briefly, the replicon cells are plated at 5,000 cells/well into 96-well plates that are dedicated for the analysis of cell numbers (cytotoxicity) or antiviral activity. On the following day, samples are diluted with assay media and added to the appropriate wells. Cells are processed 72 hours later when the cells are still sub-confluent. For the luciferase endpoint assay, HCV replicon levels are assessed as replicon-derived L uc activity. The concentration of drug that reduces cell viability is assessed by the fluorometric CytoTox-1 cell proliferation assay (Promega), (expressed as cell numbers). For the qRT-PCR/TaqMan assay, total RNA is extracted from the replicon cells using RNeasy 96 kit (Qiagen) according to the manufacturer's protocol. Real-time RTPCR/TaqMan assays are performed to measure copy numbers of the replicon RNA and cellular ribosomal RNA. Where applicable EC50 (concentration inhibiting HCV replicon by 50%), EC90 (concentration inhibiting HCV replicon by 90%), CC50 (concentration decreasing cell viability by 50%), CC90 (concentration decreasing cell viability by 90%) and SI (selectivity indices: CC50/EC50 and CC90/EC90) values are derived.
(A replicon is a self-replicating genome or part of one, used to study replication in cells.)

Bounds are passed on as bounds.

Consider `CCCCOc1ccc(CC(=O)NO)cc1` [Bufexamac], for which the CC50 at 72 h in data set [1] is 100 µM; in data set [3], more than 100 µM. Moreover, the EC50 in data set [2] (Hepatitis C virus, Huh7.5, 72 h, read-out: EC50 (concentration inhibiting HCVcc infectivity by 50%)) was 10.2 µM; with HCV GT1B Replicon (Hepatitis C virus, GT1B, 72 h, read-out: EC50 (concentration inhibiting HCV replicon by 50%)), 11.3 µM. The “Selectivity index (CC50/EC50)” value in data set [2] (In vitro HCV cc assay) was 9.80; in the data set on HCV GT1B Replicon (In vitro HCV replicon assay), more than 8.85. Also, the “anti-hepatitis C activity (in words)” value (in data set [2] (hepatitis C viral infectivity assay); in the data set with HCV GT1B Replicon (HCV replicon assay)) was “significant anti-hepatitis C activity” throughout.

Source of the values: patent US9763901B2 (priority 2015, dated 2017).
